Data reported in US8796297B2, “4-substituted-2-amino-pyrimidine derivatives” (AbbVie Inc., priority 2009, dated 2014).

Key:
[1] = biological target: T1, rat histamine H3 receptor (Rattus norvegicus (Rat), UniProt Q9QYN8); test: FLIPR functional assay (Ca2+, HEK-293 cells coexpressing Gαqi5), rat H3 receptor; type: cell-based; settings: for Rat Maximum (%): FLIPR, percentage of the response to 1 μM RAMH; for EC50: FLIPR agonist potency
Source text: (§1) There are many methods available to show the effectiveness of compounds as histamine H3 receptor ligands. Histamine H3 receptors from mammalian species have been cloned. Methods to clone, express, and assess the potency and functional activity of such cloned genes are well known to those skilled in the art of molecular biology. […] In the present case, to determine the potency and effectiveness of representative compounds of this invention as histamine-H3 receptor ligands (H3 receptor ligands), the following tests were conducted according to previously described methods (see Esbenshade, et al., Journal of Pharmacology and Experimental Therapeutics 2003, 305, 887-896, Esbenshade, et al., Biochemical Pharmacology 2004, 68, 933-945, and in Krueger, et al., Journal of Pharmacology and Experimental Therapeutics 2005, 314, 271-281): histamine H3 receptors were cloned and stably expressed in HEK-293 (human embryonic kidney) cells coexpressing a Gαqi5. Before testing, cells were loaded with a Ca^+2 sensitive fluorescent dye, in this case Fluo-4. For partial agonist or full agonist ligands, addition of compound to the cells led to an increase in intracellular Ca^+2 which was detected by FLIPR (Fluorescence Imaging Plate Reader; Molecular Devices, Sunnyvale, Calif.) technology. The fluorescence intensities measured before addition of the test compound were subtracted from the fluorescence intensities at later time points. Peak response values determined at each concentration of ligand were expressed as a percentage of the response obtained with a maximal concentration (1 μM) of the full agonist R-α-methyl-histamine (RAMH). Concentration versus response data were analyzed to obtain compound potency as EC50 values for full and partial agonists.

[2] = biological target: T2, human histamine H3 receptor (Homo sapiens (Human), UniProt Q9Y5N1); test: Radioligand competition binding assay, human H3 receptor; settings: [3H]-N-α-methylhistamine competition binding
T2 sequence (Q9Y5N1 whole entry): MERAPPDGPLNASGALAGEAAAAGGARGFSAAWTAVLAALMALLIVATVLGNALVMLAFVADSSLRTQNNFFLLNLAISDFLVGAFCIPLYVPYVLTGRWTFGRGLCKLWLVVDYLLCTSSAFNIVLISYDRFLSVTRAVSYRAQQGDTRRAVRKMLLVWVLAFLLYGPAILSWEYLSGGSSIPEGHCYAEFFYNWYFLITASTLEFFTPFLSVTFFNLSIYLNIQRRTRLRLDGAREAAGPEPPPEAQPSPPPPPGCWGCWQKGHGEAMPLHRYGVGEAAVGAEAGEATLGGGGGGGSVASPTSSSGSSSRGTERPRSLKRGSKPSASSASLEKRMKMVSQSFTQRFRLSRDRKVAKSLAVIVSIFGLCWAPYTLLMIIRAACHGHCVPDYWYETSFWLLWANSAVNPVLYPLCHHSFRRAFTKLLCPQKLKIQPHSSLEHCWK

[3] = biological target: T2, human histamine H3 receptor; test: FLIPR functional assay (Ca2+, HEK-293 cells coexpressing Gαqi5), human H3 receptor; type: cell-based; settings: for EC50: FLIPR agonist potency; for Emax: HEK293, read-out: Human Maximum (%)
Source text: as §1

H3 receptor = H3 receptor (Mus musculus (Mouse), UniProt P58406); test: Mouse dipsogenia model (water intake); type: in vivo, CD-1 mouse
H3 receptor, sequence (P58406 whole entry): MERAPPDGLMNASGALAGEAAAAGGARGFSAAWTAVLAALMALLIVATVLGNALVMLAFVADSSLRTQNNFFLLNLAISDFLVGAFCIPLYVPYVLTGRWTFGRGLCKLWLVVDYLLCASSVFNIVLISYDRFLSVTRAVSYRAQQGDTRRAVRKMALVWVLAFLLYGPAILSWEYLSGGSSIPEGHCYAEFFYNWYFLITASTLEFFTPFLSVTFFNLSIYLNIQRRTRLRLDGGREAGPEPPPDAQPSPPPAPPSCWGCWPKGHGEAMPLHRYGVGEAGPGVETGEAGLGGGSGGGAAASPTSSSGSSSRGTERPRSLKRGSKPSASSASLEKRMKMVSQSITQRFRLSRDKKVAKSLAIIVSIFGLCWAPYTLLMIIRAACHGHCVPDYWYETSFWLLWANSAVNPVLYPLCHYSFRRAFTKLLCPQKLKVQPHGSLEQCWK
Protocol: Intraperitoneal administration of an H3 receptor agonist such as R-alpha-methyl-histamine elicits drinking in the hydrated CD-1 mouse (Fox, G. B.; et al. Pharmacology Biochemistry and Behavior 2002, 72, 741-750). This dipsogenic response is an indication of agonist activity in vivo and can be monitored by measuring the water intake of drug-treated animals in a 30 minute period.

[4] = biological target: T1, rat histamine H3 receptor; test: Radioligand competition binding assay, rat H3 receptor; settings: [3H]-N-α-methylhistamine competition binding
Protocol: To determine the effectiveness of representative compounds of this invention as histamine-3 receptor ligands (H3 receptor ligands), the following tests were conducted according to previously described methods (see European Journal of Pharmacology 1990, 188, 219-227; Journal of Pharmacology and Experimental Therapeutics 1995, 275, 598-604; Journal of Pharmacology and Experimental Therapeutics 1996, 276, 1009-1015; and Biochemical Pharmacology 1973, 22, 3099-3108).
The rat H3 receptor was cloned and expressed in cells, and competition binding assays carried out, according to methods previously described (see Esbenshade, et al. Journal of Pharmacology and Experimental Therapeutics 2005, 313, 165-175; Esbenshade et al., Biochemical Pharmacology 2004, 68, 933-945; and Krueger, et al. Journal of Pharmacology and Experimental Therapeutics 2005, 314, 271-281). Membranes were prepared from C6 or HEK293 cells, expressing the rat histamine H3 receptor, by homogenization on ice in TE buffer (50 mM Tris-HCl buffer, pH 7.4, containing 5 mM EDTA), 1 mM benzamidine, 2 μg/ml aprotinin, 1 μg/ml leupeptin, and 1 μg/ml pepstatin. The homogenate was centrifuged at 40,000 g for 20 minutes at 4° C. This step was repeated, and the resulting pellet was resuspended in TE buffer. Aliquots were frozen at −70° C. until needed. On the day of assay, membranes were thawed and diluted with TE buffer.
Membrane preparations were incubated with [^3H]-N-α-methylhistamine (0.5-1.0 nM) in the presence or absence of increasing concentrations of ligands for H3 receptor competition binding. The binding incubations were conducted in a final volume of 0.5 ml TE buffer at 25° C. and were terminated after 30 minutes. Thioperamide (30 μM) was used to define non-specific binding. All binding reactions were terminated by filtration under vacuum onto polyethylenimine (0.3%) presoaked Unifilters (Perkin Elmer Life Sciences) or Whatman GF/B filters followed by three brief washes with 2 ml of ice-cold TE buffer. Bound radiolabel was determined by liquid scintillation counting. For all of the radioligand competition binding assays, IC50 values and Hill slopes were determined by Hill transformation of the data and pKi values were determined by the Cheng-Prusoff equation.

human H3R = human H3R (Homo sapiens (Human), UniProt Q9Y5N1); test: GTPγS functional assay, membranes from HEK cells expressing the human H3R; type: biochemical; settings: for EC50: GTPγS agonist potency
human H3R, sequence (Q9Y5N1 whole entry): as the sequence (Q9Y5N1 whole entry) above
Protocol: (§2) Membranes from HEK cells expressing the human H3R, or from C6 cells expressing the rat H3R, were prepared by homogenization in cold buffer containing 50 mM Tris-HCl (pH 7.4), 5 mM EDTA, 10 mM MgCl2, 1 mM benzamidine, 2 μg/ml aprotinin, 1 μg/ml leupeptin, and 1 μg/ml pepstatin. The homogenate was centrifuged at 40,000 g for 20 min at 4° C., and the resulting pellet was resuspended in 50 mM Tris-HCl (pH 7.4), 5 mM EDTA, and 10 mM MgCl2 and homogenized. Glycerol and bovine serum albumin were added to a final concentration of 10% glycerol and 1% bovine serum albumin. Membranes were diluted in GTPγS assay buffer (25 mM HEPES, 2.5 mM MgCl2, and 75 mM NaCl, pH 7.4) and 10 μg of membrane protein was incubated in a 96-well deep-well block in the presence of 5.0 μM unlabeled GDP, approximately 0.5 nM of [^35S]GTPγS, and increasing concentrations of test compounds. Samples were incubated at 37° C. for 5 min and the assays were terminated by the addition of cold buffer (50 mM Tris-HCl, 75 mM NaCl, and 2.5 mM MgCl2, pH 7.6) and subsequent harvesting onto a Packard Unifilter 96-well GF/B plate followed by extensive washing. Microscint 20 (PerkinElmer Life Sciences) was added to the samples, and bound [^35S]GTPγS was determined using the Topcount (Perkin Elmer Life Sciences). The percentage of [^35S]GTPγS bound in each sample was calculated as a percentage of that bound to control samples incubated in the absence of the H3R agonists (basal). Data were analyzed from experiments performed in triplicate using GraphPad Prism to obtain pEC50 values, Hill slopes, and maximal % response.

[5] = test system: acetic acid-induced writhing; test: Acetic acid-induced writhing in mice; type: in vivo; settings: subcutaneous dose of 300 mg/kg, 30 minutes prior to 0.9% acetic acid ip
Protocol: Intraperitoneal injection of 0.9% acetic acid induces a writhing response that is quantified by counting the number of these induced characteristic lengthwise abdominal constrictions with torso elongations in a fixed time period (Langford, D. J.; et al. Science 2006, 312, 1967-1970). Reduction of the number of writhes by a compound administered 30 minutes prior to acetic acid exposure is a measure of analgesic activity.

rat H3R = rat H3R (Rattus norvegicus (Rat), UniProt Q9QYN8); test: GTPγS functional assay, membranes from C6 cells expressing the rat H3R; type: biochemical; settings: for EC50: GTPγS agonist potency
rat H3R, sequence (Q9QYN8 whole entry): as the sequence (P58406 whole entry) above, with A15T, T286A, G290A, H387R, V389I counted along it
Protocol: as §2

[6] = FLIPR, percentage of the response to 1 μM RAMH
[7] = [35S]GTPγS bound as percentage of basal

T1 sequence (Q9QYN8 whole entry): as the sequence (P58406 whole entry) above, with A15T, T286A, G290A, H387R, V389I counted along it

## Nc1nccc(N[C@H]2CC[C@H](N)CC2)n1 [Example 16, Trans-N^4-(4-aminocyclohexyl)pyrimidine-2,4-diamine]
[1]
  Rat Maximum (%): 74.0%
[2]
  Ki: > 363 nM
[3]
  EC50: 17700 nM
[3]; [6]
  Emax: 34.2%

## O=C(c1ccc(OCCCc2cnc[nH]2)cc1)C1CC1 [ciproxifan, reference compound]
H3 receptor; ciproxifan 3 μmol/kg, ip against Example 1 240 μmol/kg
  effect on dipsogenic response to Example 1: blocked

## NCCNc1ccnc(N)n1.O=C(O)C(O)C(O)C(=O)O [Example 1, N^4-(2-aminoethyl)pyrimidine-2,4-diamine(2R,3R)-2,3-dihydroxysuccinate]
[1]
  EC50: 5.47 nM
  Rat Maximum (%): 100.0%
[4]
  Ki: 5.5 nM
Human H3R
  EC50: 513 nM
Human H3R; [7]
  Human Maximum (%): 147%
H3 receptor; dose dependently at 80, 160, and 240 μmol/kg, ip, 30 minute period, hydrated CD-1 mouse
  water intake (dipsogenic response): induced water intake
[5]
  number of writhes: significantly reduced
Rat H3R
  EC50: 174 nM
Rat H3R; [7]
  Rat Maximum (%): 181%
[2]
  Ki: 63.1 nM
[3]
  EC50: 124 nM
[3]; [6]
  Human Maximum (%): 60.2%

## Cl.Cl.Nc1nccc(N2CCC(N)CC2)n1 [Example 20, 4-(4-aminopiperidin-1-yl)pyrimidin-2-amine dihydrochloride]
[1]
  EC50: 51.7 nM
  Rat Maximum (%): 83.0%
[4]
  Ki: 58.9 nM
Human H3R; 5 min, [35S]GTPγS bound as percentage of basal, read-out: Human Maximum (%)
  Emax: 122%
Human H3R
  EC50: 1050 nM
Rat H3R; 5 min, [35S]GTPγS bound as percentage of basal, read-out: Rat Maximum (%)
  Emax: 123%
Rat H3R
  EC50: 724 nM
[2]
  Ki: 302 nM
[3]
  EC50: 254 nM
[3]; [6]
  Emax: 41%
